{
  "source": "PubChem BioAssay (NCI)",
  "test_in_all_cases": "inhibition of tumour cell growth, NCI panel, 48 h",
  "key": {"786-0 renal": {"tested_on": "786-0 renal"}, "A498 renal": {"tested_on": "A498 renal"}, "A549 NSCLC": {"tested_on": "A549 NSCLC"}, "ACHN renal": {"tested_on": "ACHN renal"}, "BT-549 breast": {"tested_on": "BT-549 breast"}, "CAKI-1 renal": {"tested_on": "CAKI-1 renal"}, "CCRF-CEM leukemia": {"tested_on": "CCRF-CEM leukemia"}, "COLO 205 colon": {"tested_on": "COLO 205 colon"}, "DU-145 prostate": {"tested_on": "DU-145 prostate"}, "EKVX NSCLC": {"tested_on": "EKVX NSCLC"}, "HCC-2998 colon": {"tested_on": "HCC-2998 colon"}, "HCT-116 colon": {"tested_on": "HCT-116 colon"}, "HCT-15 colon": {"tested_on": "HCT-15 colon"}, "HL-60(TB) leukemia": {"tested_on": "HL-60(TB) leukemia"}, "HOP-62 NSCLC": {"tested_on": "HOP-62 NSCLC"}, "HOP-92 NSCLC": {"tested_on": "HOP-92 NSCLC"}, "HS 578T breast": {"tested_on": "HS 578T breast"}, "HT29 colon": {"tested_on": "HT29 colon"}, "IGROV1 ovarian": {"tested_on": "IGROV1 ovarian"}, "K-562 leukemia": {"tested_on": "K-562 leukemia"}, "KM12 colon": {"tested_on": "KM12 colon"}, "LOX IMVI melanoma": {"tested_on": "LOX IMVI melanoma"}, "M14 melanoma": {"tested_on": "M14 melanoma"}, "MALME-3M melanoma": {"tested_on": "MALME-3M melanoma"}, "MCF7 breast": {"tested_on": "MCF7 breast"}, "MDA-MB-231 breast": {"tested_on": "MDA-MB-231 breast"}, "MDA-MB-435": {"tested_on": "MDA-MB-435"}, "MOLT-4 leukemia": {"tested_on": "MOLT-4 leukemia"}, "NCI-H226 lung": {"tested_on": "NCI-H226 lung"}},
  "note": "“And” between values parts separate entries of the source, which are not always exact repeats. Equal entries are not always repeated.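 These data come from cells grown in 96-well plates and exposed to compound for 48 hours at five concentrations. GI50: concentration for 50% inhibition of growth. The concentration for full growth arrest is given as TGI.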",
  "data": [
    {"compound": "CCOc1cc2ncc(C#N)c(Nc3ccc(OCc4ccccn4)c(Cl)c3)c2cc1NC(=O)/C=C/CN(C)C", "values": [
      {"measurement": "GI50", "setting": "786-0 renal", "result": 755, "unit": "nM"},
      {"measurement": "TGI", "setting": "786-0 renal", "result": 2810, "unit": "nM"},
      {"measurement": "GI50", "setting": "A498 renal", "result": "124 nM and 153 nM"},
      {"measurement": "GI50", "setting": "A549 NSCLC", "result": "371 nM and 377 nM"},
      {"measurement": "TGI", "setting": "A549 NSCLC", "result": "1940 nM and > 10000 nM"},
      {"measurement": "GI50", "setting": "ACHN renal", "result": "35.8 nM and 81.7 nM"},
      {"measurement": "TGI", "setting": "ACHN renal", "result": "4140 nM and > 10000 nM"},
      {"measurement": "GI50", "setting": "BT-549 breast", "result": "1970 nM and 921 nM"},
      {"measurement": "TGI", "setting": "BT-549 breast", "result": "22000 nM and > 7850 nM"},
      {"measurement": "GI50", "setting": "CAKI-1 renal", "result": "56.4 nM and 146 nM"},
      {"measurement": "TGI", "setting": "CAKI-1 renal", "result": "12500 nM and > 9090 nM"},
      {"measurement": "GI50", "setting": "CCRF-CEM leukemia", "result": "1300 nM and 2440 nM"},
      {"measurement": "TGI", "setting": "CCRF-CEM leukemia", "result": "4950 nM and > 6110 nM"},
      {"measurement": "GI50", "setting": "COLO 205 colon", "result": "1040 nM and 598 nM"},
      {"measurement": "TGI", "setting": "COLO 205 colon", "result": "24700 nM and > 5210 nM"},
      {"measurement": "GI50", "setting": "DU-145 prostate", "result": "113 nM and 181 nM"},
      {"measurement": "TGI", "setting": "DU-145 prostate", "result": "1930 nM and 4730 nM"},
      {"measurement": "GI50", "setting": "EKVX NSCLC", "result": "18.3 nM and 18.9 nM"},
      {"measurement": "TGI", "setting": "EKVX NSCLC", "result": "25600 nM and > 6840 nM"},
      {"measurement": "GI50", "setting": "HCC-2998 colon", "result": "1290 nM and > 2870 nM"},
      {"measurement": "TGI", "setting": "HCC-2998 colon", "result": "20100 nM and > 7880 nM"},
      {"measurement": "GI50", "setting": "HCT-116 colon", "result": "568 nM and 615 nM"},
      {"measurement": "TGI", "setting": "HCT-116 colon", "result": "2080 nM and 2050 nM"},
      {"measurement": "GI50", "setting": "HCT-15 colon", "result": "475 nM and 404 nM"},
      {"measurement": "TGI", "setting": "HCT-15 colon", "result": "7970 nM and 5670 nM"},
      {"measurement": "GI50", "setting": "HL-60(TB) leukemia", "result": "855 nM and 822 nM"},
      {"measurement": "TGI", "setting": "HL-60(TB) leukemia", "result": "12900 nM and 2730 nM"},
      {"measurement": "GI50", "setting": "HOP-62 NSCLC", "result": "1220 nM and 1510 nM"},
      {"measurement": "TGI", "setting": "HOP-62 NSCLC", "result": "4440 nM and > 7810 nM"},
      {"measurement": "TGI", "setting": "HOP-92 NSCLC", "result": "22800 nM and 4060 nM"},
      {"measurement": "GI50", "setting": "HS 578T breast", "result": "540 nM and 351 nM"},
      {"measurement": "TGI", "setting": "HS 578T breast", "result": "66600 nM and > 5760 nM"},
      {"measurement": "GI50", "setting": "HT29 colon", "result": "491 nM and 502 nM"},
      {"measurement": "TGI", "setting": "HT29 colon", "result": "2050 nM and 2620 nM"},
      {"measurement": "GI50", "setting": "IGROV1 ovarian", "result": "121 nM and 19.1 nM"},
      {"measurement": "TGI", "setting": "IGROV1 ovarian", "result": "5700 nM and 1840 nM"},
      {"measurement": "GI50", "setting": "K-562 leukemia", "result": "1410 nM and 606 nM"},
      {"measurement": "TGI", "setting": "K-562 leukemia", "result": "3270 nM and 3360 nM"},
      {"measurement": "GI50", "setting": "KM12 colon", "result": "1520 nM and 1980 nM"},
      {"measurement": "TGI", "setting": "KM12 colon", "result": "5290 nM and > 7340 nM"},
      {"measurement": "GI50", "setting": "LOX IMVI melanoma", "result": "724 nM and 820 nM"},
      {"measurement": "TGI", "setting": "LOX IMVI melanoma", "result": "2290 nM and > 5730 nM"},
      {"measurement": "GI50", "setting": "M14 melanoma", "result": "392 nM and 380 nM"},
      {"measurement": "TGI", "setting": "M14 melanoma", "result": "1950 nM and 1580 nM"},
      {"measurement": "GI50", "setting": "MALME-3M melanoma", "result": 610, "unit": "nM"},
      {"measurement": "TGI", "setting": "MALME-3M melanoma", "result": 2590, "unit": "nM"},
      {"measurement": "GI50", "setting": "MCF7 breast", "result": "1650 nM and 927 nM"},
      {"measurement": "TGI", "setting": "MCF7 breast", "result": "3220 nM and > 6000 nM"},
      {"measurement": "GI50", "setting": "MDA-MB-231 breast", "result": "1350 nM and 1480 nM"},
      {"measurement": "TGI", "setting": "MDA-MB-231 breast", "result": "2990 nM and 5630 nM"},
      {"measurement": "GI50", "setting": "MDA-MB-435", "result": "902 nM and 770 nM"},
      {"measurement": "TGI", "setting": "MDA-MB-435", "result": "2520 nM and 5370 nM"},
      {"measurement": "GI50", "setting": "MOLT-4 leukemia", "result": "672 nM and 463 nM"},
      {"measurement": "TGI", "setting": "MOLT-4 leukemia", "result": "20300 nM and > 5610 nM"},
      {"measurement": "GI50", "setting": "NCI-H226 lung", "result": "6060 nM and 1690 nM"}
    ]}
  ]
}
